Test results: US20200397860A1, “SLIT AND BONE GROWTH MODULATION” (Cornell University, priority 2018, published 2020)

Assays:
[1] = tested on: bone marrow endothelial progenitor outgrowth cells (EPOCs); experiment: Matrigel tube formation assay; format: cell-based, mouse; settings: EPOCs transduced with YAP shRNA
Description: Mouse bone marrow derived late-stage endothelial progenitor outgrowth cells (EPOCs) were obtained from BioChain (7030031) and cultured in growth medium (BioChain Z7030035) as described previously (Xie et al. 2014). Endothelial cell migration assay was set up in Trans well-24 well plates with 8-um pore filters. Briefly, 1×10^5 cells/well after 1-hour serum starvation were seeded in the upper chamber, then incubated with conditioned medium from osteoblasts and control in the lower chambers for a further 3 h. The cells in the upper surface of each filter were removed with cotton swabs. The cells that migrated into the lower surface were fixed with 4% PFA for 30 min and then stained with crystal violet. The cell numbers were quantified by counting a centered microscope field per each filter (5 wells for each condition). Endothelial cell wound healing assays were conducted in 12-well plates precoated with gelatin (Stemcell Technologies). 3×10^5 cells/well were plated overnight and stimulated with a wound in the form of a single linear scratch made with a yellow pipette tip. After gently washing the well twice, cells were cultured in medium with SLIT3 or vehicle. At 6 and 12 hours after injury, cells were stained by 0.5% crystal violet and photographed. The width of the wound area was quantitatively evaluated using ImageJ (see website at rsb.info.uih.gov/ij/download.html). Endothelial cell proliferation assays were conducted in 96-well plates pre-coated with gelatin (Stemcell Technologies). EPOCs (3×10^4 cells/well) were seeded in the medium with a serial dilution of SLIT3 protein or vehicle in plates. At 0, 24, 48 hours after seeding, cells were incubated with 10-fold diluted Alamar Blue solution (Thermo Fisher) and the supernatant was evaluated with a spectrophotometer (Thermo) (5 wells for each condition). Endothelial cell tube formation assay was conducted in 96-well plates pre-coated with Matrigel (BD). After 1 h serum starvation, EPOCs (3×10^4 cells/well) were seeded in conditioned medium dilution or control medium on polymerized Matrigel in plates. Alter 5 hours incubation at 37° C., the number of tube branches each well was observed and quantified by counting four random fields per well with microscopy (5 wells for each condition).

[2] = tested on: murine ovariectomy (OVX) model of postmenopausal osteoporosis; experiment: Ovariectomy (OVX) induced bone loss, prophylactic model; format: in vivo, mouse; settings: L3 vertebrae
Description: Micro-CT (μCT) analysis was conducted on a Scanco Medical μCT 35 system at the Citigroup Biomedical Imaging Core using the previously described parameters. (Shim et al. 2013). μCT analysis was performed by an investigator blinded to the genotypes of the animals under analysis.
For histomorphometry, mice were injected with calcein (25 mg/kg, Sigma), and undecalcified sections of the lumbar vertebrae were stained using von Kossa and TRAP as described by Fukuda et al. (2013). Static and dynamic histomorphometric analysis was performed with using the Osteomeasure Analysis System (Osteometrics) following standard nomenclature as described (Dempster et al. 2013). Bone volume/total volume (BV/TV), bone formation rate/bone surface (BFR/BS, μm^3 […] yr^−1), mineral apposition rate (MM, um Day^−1), osteoblast surface/bone surface (Ob.S/BS, %) and osteoclast number/bone perimeter (No. OC/Bpm) were analyzed.
For the prophylactic model, 12-week-old female mice (JAX) were anesthetized and bilaterally ovariectomized or sham operated. Ovariectomized mice were given twice weekly intravenous injections of 1 mg per kg body weight of SLITS or vehicle or daily subcutaneous (sc) injections of 80 ug/kg PTH (1-34) for 6 weeks starting 2 weeks after ovariectomy. […] All mice were then randomly assigned to one of four groups: Sham, OVX+vehicle, OVX+SLITS and OVX+PTH. Three days after the last injection, all of the mice were euthanized and subjected to bone analysis as described earlier.

[3] = tested on: CD31^hiEMCN^hi endothelium; experiment: Flow cytometry of skeletal CD31hiEMCNhi endothelium in femurs after IV injection; format: in vivo, mouse; settings: 8-week-old B6 mice, twice weekly IV 1 mg/kg, 21 days, femur
Description: Femur and tibia were dissected from mutant mice and control groups after removing surrounding connective tissues. The metaphysis region and diaphysis regions of bone was crushed in Hanks Balanced Salt Solution (Life Technologies) containing 10 mM HOPES (pH 7.2) (CellGro) and enzymatically digested with 2.5 mg/mL Collagenase A (Roche) and 1 unit/mL Dispase II (Roche) for 15 minutes at 37° C. under gentle agitation. The resulting cell suspensions were filtered (40 μm), washed using PBS (pH 7.2) containing 0.5% BSA (Fraction V) and 2 mM EDTA. After washing, equal numbers of cells per mouse were blocked with Purified Rat Anti-Mouse CD16/CD32 (BD Biosciences) for 30 min on ice, then stained with APC-conjugated EMCN antibody (ebioscience 50-5851-80), PE-conjugated CD31 (ebioscience 12-0311-81). FITC-conjugated CD45 (Tonbo 35-0451), APC/Cy7-conjugated Ter119 (Biolegend 116223) and PerCP-Cy5.5-conjugated CD146 (BD Biosciences 562231) for 45 min on ice. After washing, cells were resuspended in PBS (pH 7.2) with 2 mM EDTA and 1 μg/mL 4-6,Diamidino-2-Phenylindole (DAPI) (live/dead exclusion) for analysis on an LSRII flow cytometer system (BD Biosciences) cytometer and analyzed using FlowJo software (TreeStar). Cell sorting was performed with a FACS Aria II SORP cell sorter (Becton Dickinson) at Weill Cornell Medical College, with exclusion of DAPI^+ cells and doublets. […]

FGF2: FGF2, positive control inducer of tube formation [reference compound]
ability to induce tube formation after shRNA-mediated knockdown of YAP [1]: not

PTH: parathyroid hormone PTH (1-34), daily subcutaneous injections, comparator in OVX model (SVSEIQLMHNLGKHLNSMERVEWLRKKLQDVHNF; Parathyroid hormone; UniProt P01270 32-65, looked up, fragment) [reference compound]
endosteal CD31hiEMCNhi endothelium after OVX [2]: reversed the attenuation
endosteal bone formation [2]: rescued

SLIT2: recombinant SLIT2 protein, SLIT family ligand
levels of skeletal CD31hiEMCNhi endothelium in vivo [3]: increased formation
